Assay results from patent publication US4269717A, “Boiler additives for oxygen scavenging” (priority 1980, dated 1981).
Read-outs that look alike come from different tables or passages of the source.

Assays:
[1] = Commercial scale boiler comparison of oxygen scavenging
Method: Commercial scale comparisons were made between carbohydrazide and hydrazine. The tests were run on a system including a deaerator which treats a mixture of feed water and condensate at 60 p.s.i. and 300°-310° F. before it is fed to a first stage heater at 160 p.s.i. and 360°-366° F. and a second stage heater at 400 p.s.i. and 446°-450° F. The second stage heater then feeds into three boilers: a combination boiler at 1,275 p.s.i., a first power boiler at 1,275 p.s.i. and a second power boiler at 400 p.s.i. The treatment chemicals were fed alternatively at the deaerator and just down line from it.

[2] = Metal passivation in experimental firerod boiler (Table IV)
Text: Metal passivation studies were undertaken using an experimental firerod boiler under the following test conditions:
10 boiler water concentrations
40 ppm M alkalinity (as CaCO3)
A blank containing no oxygen scavenger was followed by test runs with hydrazine, carbohydrazide, and sodium sulfite.
*Tubes ranked by appearance of metal surface.

[3] = format: physicochemical; conditions: for Final Hydrazine Level / Percent Hydrolysis: fed at 100 ppm, pH 8.0, 600 p.s.i.
Text: High temperature hydrolysis studies were next carried out again using reagent grade carbohydrazide containing approximately 2% hydrazine as an impurity. The apparatus used in this work was the once-through experimental apparatus for simulating boiler water transport referred to in Example 2, with feedwater pH set at 8.0 and system pressure at 600 p.s.i.
^1 Carbohydrazide was fed at 100 ppm; complete hydrolysis of the
carbohydrazide would theoretically yield 71.1 ppm N2 H4.

[4] = Oxygen scavenging in heated copper coil apparatus (FIG. 1); conditions: 135° F.; pH 9.0; initial O2 7.7 ppm; corresponding scavenger:oxygen levels
Method: Another series of tests comparing hydrazine and carbohydrazide were carried out with the results presented in graphic form in FIG. 1. These tests were carried out at a temperature of 135° F. and a pH of 9.0 to prevent hydrolysis of the carbohydrazide.
The apparatus used including a reciprocating pump drawing water from a water reservoir and moving it through a heated copper coil at a rate of about 37 ml/minute. The coil was mounted in a cooling column and dissolved oxygen was measured at its outlet. The initial oxygen reading taken at this point for these tests was 7.7 ppm.
After the initial oxygen reading was taken, the scavenger being tested was injected into the feed line before the reciprocating pump.

[5] = Method: A second more extensive group of potential oxygen scavengers were compared, again using a small laboratory boiler and oxygen saturated feed water containing sodium hydroxide. […] The hydrazine salts among this group are no less toxic than hydrazine and therefore were eliminated from further study. […] In addition, the carbohydrazide was preferred because it is a solid at room temperature and could therefore be used in dry formulations.
INITIAL SCREENING AT 227-239° F.

[6] = Carbohydrazide vs. hydrazine in oxygen removal, once-through apparatus (Table III); conditions: for % O2 Removal / Final O2: initial O2 7.7 ppm, 227-239° F., pH about 10.5
Method: A once-through experimental apparatus for simulating boiler water transport was utilized in this example. Water temperature in this example was maintained at about 227°-239° F. and pH at about 10.5.

[7] = 282 °F., residence time 14.5 min
[8] = 343 °F., residence time 14.5 min
[9] = 400 °F., residence time 14.5 min
[10] = 400 °F., residence time 15.0 min

NNC(=O)NN [Carbohydrazide, N, N' diaminourea]
Oxygen scavenging relative to hydrazine, various points ([1]; carbohydrazide levels half those of hydrazine): comparable or superior to the hydrazine
Oxygen scavenging relative to hydrazine at 360° F. ([1]; just past first stage heater, carbohydrazide at 50% of hydrazine level): scavenged the oxygen more efficiently than the hydrazine
Oxygen scavenging relative to hydrazine at 446° F. ([1]; just past second stage heater, carbohydrazide at 50% of hydrazine level): scavenged the oxygen more efficiently than the hydrazine
Oxygen scavenging relative to hydrazine at 300° F. ([1]; just past the deaerator, carbohydrazide at 50% of hydrazine level): comparable with the hydrazine
Tube Rank (by appearance of metal surface) ([2]; dosage 1 ppm, 600 p.s.i., 48 hour test): 1
Metal passivation effectiveness ([2]; under the test conditions, Table IV): the most effective metal passivator
Hydrolysis at 220° F. ([3]; 220° F.): minimal
Hydrolysis at 282° F. ([3]; 282° F.): minimal
Final Hydrazine Level [3, 7]: 7 ppm
Percent Hydrolysis [3, 7]: 7.0%
Hydrolysis at 340° F. through 400° F. ([3]; 340° F. through 400° F.): still not complete
Final Hydrazine Level [3, 8]: 45 ppm
Percent Hydrolysis [3, 8]: 60.5%
Final Hydrazine Level [3, 9]: 59 ppm
Percent Hydrolysis [3, 9]: 80.2%
Final Hydrazine Level [3, 10]: 61 ppm
Percent Hydrolysis [3, 10]: 83.0%
Hydrazine found ([3]; about 220° F.): less than 7%
Percent Hydrolysis ([3]; residence time 14.5 min): 0%
Final Hydrazine Level ([3]; temperature 21 °F. (so in the source), residence time 14.5 min): 2 ppm
Oxygen scavenging relative to hydrazine [4]: superior to the hydrazine
Scavenger ranking of the remaining two compounds [5]: the best scavenger
Oxygen scavenging activity relative to hydrazine ([5]; 227-239° F., Table II): activity comparable to hydrazine
% O2 Removal ([5]; initial O2 40 ppb, 227-239° F.): 87.5%
Final O2 ([5]; initial O2 40 ppb, 227-239° F.): 5 ppb
% O2 Removal ([6]; ppm scavenger/ppm O2 0.05/1): 14.3%
Final O2 ([6]; ppm scavenger/ppm O2 0.05/1): 6.60 ppm
% O2 Removal ([6]; ppm scavenger/ppm O2 0.5/1): 57.4%
Final O2 ([6]; ppm scavenger/ppm O2 0.5/1): 3.28 ppm
% O2 Removal ([6]; ppm scavenger/ppm O2 5.0/1): 98.7%
Final O2 ([6]; ppm scavenger/ppm O2 5.0/1): 0.10 ppm
Amount needed for oxygen removal achieved with a given concentration of hydrazine ([6]; vs hydrazine, Table III): half as much
